According to article PMC6028453, “BrlR from Pseudomonas aeruginosa is a receptor for both cyclic di-GMP and pyocyanin” (Nature Communications, 2018):
“And” between values parts separate entries of the source, which are not always exact repeats. Identical values can stand only once.

Legend:
ΔbrlR cells = assay: Planktonic antibiotic susceptibility testing, ΔbrlR; type: cell-based, Pseudomonas aeruginosa; conditions: 50 μg/ml tobramycin 1 h, 0.2 mM pyocyanin
Method: To determine the role of pyocyanin in antimicrobial susceptibility, P. aeruginosa strains (Supplementary Table 2) were grown at 37 °C in 20-fold diluted LB medium supplemented with or without 0.2 mM pyocyanin, which was purified from stationary phase cultures of PAO1. Tobramycin was added to the mid-log phase (OD600 = 0.8) cells suspension to a final concentration of 50 μg/ml; after 1 h, the broth was serially diluted and spread-printed onto LB agar (medium containing 300 μg/ml carbenicillin was used for the cells harboring plasmid) to determine the cell viability via CFU counts. The cell suspensions without tobramycin were set as controls. Susceptibility is expressed as a logarithmic reduction in CFU amount. The data were analyzed with a one-tailed t-test (***P ≤ 0.001).

BrlR Y183A DNA binding = target: T1, BrlR Y183A DNA binding (Pseudomonas aeruginosa, UniProt Q9HUT5, Y183A); assay: EMSA, BrlR Y183A with PbrlR; type: biochemical
T1 construct: His6-SUMO (N, cleaved yes); made in house; host or cells: E. coli BL21 DE3
T1 sequence (Q9HUT5 whole entry Y183A): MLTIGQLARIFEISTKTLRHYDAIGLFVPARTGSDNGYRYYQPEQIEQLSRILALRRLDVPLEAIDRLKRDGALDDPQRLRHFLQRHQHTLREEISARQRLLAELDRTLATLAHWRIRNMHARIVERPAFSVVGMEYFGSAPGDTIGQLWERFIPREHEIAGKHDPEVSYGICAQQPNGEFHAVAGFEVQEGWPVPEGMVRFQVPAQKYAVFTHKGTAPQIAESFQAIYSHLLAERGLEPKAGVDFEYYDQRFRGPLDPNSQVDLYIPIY
Method: (§1) It is unlikely that the larger drug molecules located in the canonical binding pocket can slide into the pyocyanin binding site and promote BrlR-DNA binding, as reflected by the EMSA results for tobramycin (Fig. 6a). To further verify the amino acid residues contributing to pyocyanin binding, many BrlR mutants were constructed. Whereas mutant E247A was insoluble, mutant F253R was not expressed, and mutant C173W was unstable. The binding affinity of Y183A and Y249A for pyocyanin were evaluated by using EMSA with a 36-bp PbrlR.
(§2) A 6-carboxy-fluorescein (FAM)-labeled 36-bp brlR promoter DNA (PbrlR) or 80-bp mexA/mexE promoter DNA (PmexA/PmexE) probes (~0.375 pmol), BrlR protein and varying amounts of inducers were incubated in binding buffer (10 mM Tris HCl [pH 7.4], 50 mM KCl, 1 mM DTT, […] and 5 ng/mL poly [dI-dC]) for 60 min at 25 °C. Finally, glycerol was added to a concentration of 6.5%. The samples were subjected to a 5% polyacrylamide gel electrophoresis and run in 0.5 × Tris-borate-EDTA buffer at 80 V for 1 h at room temperature. Imaging and data analyses were performed using a Typhoon Scanner (GE Healthcare) and Imagequant software. The probes used are listed in Supplementary Table 1.

BrlR-DNA binding (PbrlR) = target: T2, BrlR-DNA binding (PbrlR) (Pseudomonas aeruginosa, UniProt Q9HUT5); assay: EMSA, wild-type BrlR with PbrlR DNA; type: biochemical
T2 construct: His6-SUMO (N, cleaved yes); made in house; host or cells: E. coli BL21 DE3
T2 sequence (Q9HUT5 whole entry): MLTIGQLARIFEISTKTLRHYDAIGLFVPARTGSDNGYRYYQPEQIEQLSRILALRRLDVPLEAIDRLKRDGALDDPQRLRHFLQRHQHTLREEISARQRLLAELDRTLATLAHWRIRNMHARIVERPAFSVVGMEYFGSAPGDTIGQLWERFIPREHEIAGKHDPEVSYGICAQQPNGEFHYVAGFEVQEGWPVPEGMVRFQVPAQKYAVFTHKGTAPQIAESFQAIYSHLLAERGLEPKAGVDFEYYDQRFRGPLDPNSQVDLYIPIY
Method: as §2

[1] = target: Per-Arnt-Sim (PAS) domain of PA14_07500 (RmcA); set-up: method as in earlier work; conditions: intrinsic fluorescence quenching method; ref 4 (Okegbe et al., 2017) of response letter; cited from earlier work
BrlR Y249A DNA binding = target: T3, BrlR Y249A DNA binding (Pseudomonas aeruginosa, UniProt Q9HUT5, Y249A); assay: EMSA, BrlR Y249A with PbrlR; type: biochemical
T3 construct: His6-SUMO (N, cleaved yes); made in house; host or cells: E. coli BL21 DE3
T3 sequence (Q9HUT5 whole entry Y249A): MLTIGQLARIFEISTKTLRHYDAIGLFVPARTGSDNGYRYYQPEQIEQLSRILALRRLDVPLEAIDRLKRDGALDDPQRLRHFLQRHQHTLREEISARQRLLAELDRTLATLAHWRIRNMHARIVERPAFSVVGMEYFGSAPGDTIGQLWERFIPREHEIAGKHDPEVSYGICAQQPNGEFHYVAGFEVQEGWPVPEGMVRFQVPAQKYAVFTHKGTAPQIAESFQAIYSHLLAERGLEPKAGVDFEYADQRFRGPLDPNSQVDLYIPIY
Method: as §1, §2

[2] = target: T4, BrlR binding to PmexA and PmexE (Pseudomonas aeruginosa, UniProt Q9HUT5); assay: EMSA, BrlR with PmexA and PmexE; type: biochemical; conditions: increasing concentrations of pyocyanin
T4 construct: His6-SUMO (N, cleaved yes); made in house; host or cells: E. coli BL21 DE3
T4 sequence (Q9HUT5 whole entry): as the sequence (Q9HUT5 whole entry) above
Method: as §2

BrlR [3] = target: T5, BrlR (Pseudomonas aeruginosa, UniProt Q9HUT5); assay: Surface plasmon resonance (SPR) analysis; type: binding
T5 construct: His6-SUMO (N, cleaved yes); made in house; host or cells: E. coli BL21 DE3
T5 sequence (Q9HUT5 whole entry): as above
Method: The binding affinity of diverse toxic compounds for BrlR were investigated by SPR using a BIAcore-T200 apparatus (GE Healthcare). The ligand, BrlR (20 μM in 10 mM sodium acetate, pH 4.5), was immobilized on an activated CM5 sensor chip by amine coupling (BIAcore) with 4400 response units (RU), and the unreacted sites were blocked with 1.0 M ethanolamine–HCl (pH 8.5). Steady-state binding analysis was performed with injections of different molecules at different concentrations over the immobilized BrlR surface at a flow rate of 20 μL min^−1 at 25 °C. Association was measured for 180 s, followed by 120 s of dissociation in running buffer (20 mM Hepes pH 7.5, 150 mM NaCl). The sensorgrams for specific interactions were obtained by subtracting the reference unimmobilized flow cell response from that of the sample. Since BrlR only has one binding site for pyocyanin or other toxic compounds (Fig. 5a–f), the kinetic analysis of the sensorgrams from analyte interaction with the immobilized BrlR was performed by fitting the binding curves to a 1:1 binding model. To determine the steady state KD values, equilibrium responses were plotted against analyte concentrations, and the resulting curves were fitted to the steady state model in the BIAevaluation software package, version 3.0 (GE Healthcare).

brlR transcription = assay: qRT-PCR of brlR transcript; type: cell-based, P. aeruginosa PAO1
Method: PAO1 WT strains were grown under different conditions. For c-di-GMP effects, overexpression of PA4843 in PAO1 (PAO1/pHERD20T-PA4843) relative to WT cells (PAO1/ pHERD20T) was determined. When P. aeruginosa strains entered mid-log phase, arabinose was added to induce gene expression. To test pyocyanin’s effect, a P. aeruginosa PAO1 WT strain cells with high pyocyanin production was determined relative to a ΔphzA1-G1/phzA2-G2 strain not producing phenazine and a ΔphzMSH strain not producing pyocyanin.
Total RNA was extracted using a MiniBEST Universal RNA Extraction Kit (TaKaRa) and cDNA synthesis was performed using a PrimeScript RT reagent Kit (TaKaRa). Primers for RT-PCR listed in Supplementary Table 1 were designed using the program PrimerExpress (Applied Biosystems). The RT-PCR reactions were performed on a CFX96 Real-Time PCR Detection System (Bio-Rad) using SYBR Premix Ex Taq™ (TaKaRa). Expression of the target genes was normalized to the expression of 16 S RNA. The relative transcript abundance was calculated according to the 2^−ΔΔCt method. Five biological replicates were performed per sample. The data were analyzed with a one-tailed t-test (***P ≤ 0.001).

brlR [4] = system: brlR; set-up: method as in PMID 16879411; conditions: addition of pyocyanin to P. aeruginosa PA14 strain; cited from earlier work

## Cn1c2cccc(=O)c-2nc2ccccc21 [pyocyanin, 5-N-methyl-1-hydroxyphenazine]
ΔbrlR cells
  viability of tobramycin-treated cells with vs without pyocyanin: no significant difference
BrlR Y183A DNA binding
  DNA bound in the presence vs absence of pyocyanin: 3.23 fold
BrlR-DNA binding (PbrlR); PbrlR, c-di-GMP, pyocyanin, and both
  effect of c-di-GMP and pyocyanin together on BrlR-DNA binding: cooperatively enhance
BrlR-DNA binding (PbrlR); wild-type BrlR, PbrlR
  DNA bound in the presence vs absence of pyocyanin: 5.47 fold
BrlR-DNA binding (PbrlR); wild-type BrlR, increasing concentrations of compound
  effect on BrlR-PbrlR DNA binding (in words): significant increase
[1]
  Kd: 3 µM
BrlR Y249A DNA binding
  DNA bound in the presence vs absence of pyocyanin: 4.15 fold
[2]
  effect on BrlR binding to PmexA and PmexE: enhanced
BrlR [3]; SPR KD 4.5 μM vs 0.64 mM
  binding affinity relative to tobramycin: ~ 140 fold
BrlR [3]; SPR, immobilized BrlR, steady state, 25 °C
  Kd: 4.52 µM and 4.5 µM
brlR transcription; PAO1 at high pyocyanin production vs strain not producing phenazine
  brlR expression level, PAO1 vs ΔphzA1-G1/phzA2-G2 strain: ~ 4.0 fold
brlR transcription; PAO1 at high pyocyanin production vs strain with no pyocyanin production
  brlR expression level, PAO1 vs ΔphzMSH strain: ~ 5.3 fold
brlR [4]
  up-regulation of brlR: 2.3 fold
